These results are taken from ChEMBL document CHEMBL4396928, “Discovery of Selective, Orally Bioavailable Pyrazolopyridine Inhibitors of Protein Kinase Cθ (PKCθ) That Ameliorate Symptoms of Experimental Autoimmune Encephalomyelitis” (ACS Med Chem Lett, 2019).

Some results are limits rather than exact numbers.

Series [1] deals with Protein kinase C theta type (Homo sapiens, UniProt Q04759). Description: Inhibition of human recombinant full length His tagged PKC theta expressed in baculovirus using ERMRPRKRQGSVRRRV peptide as substrate incubated for 60 mins in presence of [33P] gammaATP by microbeta liquid scintillation counter.
The species named for series [2] is Homo sapiens. Description: Selectivity ratio Ki for recombinant full length PKC delta (unknown origin) to Ki for human recombinant full length His-tagged PKC theta.
The species named for series [3] is Homo sapiens. The series can be described thus: Selectivity ratio Ki for recombinant full length PKC alpha (unknown origin) to Ki for human recombinant full length His-tagged PKC theta.
The subject of series [4] is PBMC. Description: Inhibition of IL-2 secretion from human PBMC cells stimulated with anti-CD3/CD28 measured after 24 hrs by bead-based FLISA. It is filed as functional, cell-based.
The nature of series [5]: Unbound hepatic clearance in rat hepatocytes assessed per million cells. The class given is ADME, cell-based, Hepatocyte.
The nature of series [6]: Half-life in iv dosed rat. The class given is ADME, organism-based. Particulars: in vivo.
In series [7] the target is Rho-associated protein kinase (Homo sapiens, UniProt O75116+Q13464). Description: Inhibition of ROCK (unknown origin) using Myelin Basic Protein as substrate incubated for 60 mins in presence of [33P] gammaATP by microbeta liquid scintillation counter. The class given is protein assay.
Series [8] can be described thus: Permeability across apical to basolateral side in human Caco2 cells measured at 120 mins by LC-MS/MS analysis. The class given is ADME, cell-based. Particulars: Caco-2, read-out: permeability. (Caco-2 cells form a polarised layer with tight junctions and transporters.)
The target of series [9] is Protein kinase C delta type (Homo sapiens, UniProt Q05655). Description: Inhibition of recombinant full length PKC delta (unknown origin) using ERMRPRKR- QGSVRRRV peptide as substrate measured after 15 mins in presence of ATP by spectrophotometric analysis.
Series [10] can be described thus: Efflux ratio of permeability in human Caco2 cells by LC-MS/MS analysis. It is filed as ADME, cell-based. Particulars: Caco-2.
Series [11] is described as follows: Clearance in iv dosed rat. It is filed as ADME, organism-based. Particulars: in vivo.
A short description of series [12]: Volume of distribution at steady state in iv dosed rat. It is filed as ADME, organism-based. Particulars: in vivo, read-out: Vdss.
The nature of series [13]: Unbound hepatic clearance in human hepatocytes assessed per million cells. The class given is ADME, cell-based, Hepatocyte.
Series [14] addresses Tyrosine-protein kinase JAK2 (Homo sapiens, UniProt O60674). Description: Inhibition of JAK2 (unknown origin) using polyE4Y peptide as substrate incubated for 60 mins in presence of [33P] gammaATP by microbeta liquid scintillation counter.
A short description of series [15]: Stability of compound in rat liver microsomes assessed as compound remaining at 30 mins. It is filed as ADME, Microsome. Particulars: read-out: Stability. (In general: Liver microsomes are vesicles of endoplasmic reticulum, rich in cytochrome P450 enzymes.)
The subject of series [16] is HFL1. The series can be described thus: Cytotoxicity against human HFL1 cells assessed as growth inhibition measured after 48 hrs by 3H-thymidine incorporation assay. It is filed as cell-based.
Series [17] has as its target Voltage-gated inwardly rectifying potassium channel KCNH2 (Homo sapiens, UniProt Q12809). The series can be described thus: Inhibition of human ERG.
Series [18] addresses Protein kinase C alpha type (Homo sapiens, UniProt P17252). Description: Inhibition of recombinant full length PKC alpha (unknown origin) using RRRRRKGSFKRKA peptide as substrate measured after 15 mins in presence of ATP by spectrophotometric analysis.
The nature of series [19]: Stability of compound in human liver microsomes assessed as compound remaining at 30 mins. It is filed as ADME, Microsome. Particulars: read-out: Stability.
A short description of series [20]: Dissociation constant, pKa of compound. The class given is physicochemical.
Series [21] addresses T1, Receptor-type tyrosine-protein kinase FLT3 (Homo sapiens, UniProt P36888).
T1 sequence (P36888 whole entry): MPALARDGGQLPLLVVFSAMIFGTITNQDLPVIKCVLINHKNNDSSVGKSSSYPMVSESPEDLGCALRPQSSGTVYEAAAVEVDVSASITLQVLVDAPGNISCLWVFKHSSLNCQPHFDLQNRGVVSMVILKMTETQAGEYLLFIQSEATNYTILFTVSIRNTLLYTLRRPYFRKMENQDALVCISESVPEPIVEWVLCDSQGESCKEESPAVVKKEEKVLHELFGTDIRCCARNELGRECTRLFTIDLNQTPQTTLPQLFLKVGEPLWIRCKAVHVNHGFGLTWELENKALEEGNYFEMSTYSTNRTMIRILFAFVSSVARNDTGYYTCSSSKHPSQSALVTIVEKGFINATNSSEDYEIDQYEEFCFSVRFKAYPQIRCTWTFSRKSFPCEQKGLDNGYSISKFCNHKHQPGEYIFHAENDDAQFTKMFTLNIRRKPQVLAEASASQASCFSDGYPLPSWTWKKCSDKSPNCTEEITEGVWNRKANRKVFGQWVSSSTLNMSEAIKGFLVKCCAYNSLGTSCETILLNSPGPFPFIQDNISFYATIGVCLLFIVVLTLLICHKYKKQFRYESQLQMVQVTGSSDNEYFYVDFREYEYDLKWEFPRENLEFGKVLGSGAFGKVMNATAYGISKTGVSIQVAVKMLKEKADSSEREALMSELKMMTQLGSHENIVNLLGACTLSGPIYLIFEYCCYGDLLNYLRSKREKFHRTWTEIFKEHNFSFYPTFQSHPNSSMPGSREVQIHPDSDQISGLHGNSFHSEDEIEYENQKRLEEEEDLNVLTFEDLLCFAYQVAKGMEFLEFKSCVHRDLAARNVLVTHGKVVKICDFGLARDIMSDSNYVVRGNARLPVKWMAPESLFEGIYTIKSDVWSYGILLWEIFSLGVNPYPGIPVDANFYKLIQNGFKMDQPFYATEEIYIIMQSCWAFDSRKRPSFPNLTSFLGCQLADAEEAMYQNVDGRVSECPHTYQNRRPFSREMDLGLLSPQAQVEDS
The series can be described thus: Inhibition of FLT3 (unknown origin) using polyE4Y peptide as substrate incubated for 60 mins in presence of [33P] gammaATP by microbeta liquid scintillation counter.

Series [22] has as its target cAMP-dependent protein kinase catalytic subunit alpha (Homo sapiens, UniProt P17612). Description: Inhibition of protein kinase A (unknown origin) using Kemptide (LRRASLG) as substrate incubated for 15 mins in presence of ATP by spectrophotometric analysis.
Series [23] in a line: Lipophilicity, logD of compound. Particulars: octanol/water. It is filed as physicochemical.

Chain of Protein kinase C theta type (Q04759 whole entry): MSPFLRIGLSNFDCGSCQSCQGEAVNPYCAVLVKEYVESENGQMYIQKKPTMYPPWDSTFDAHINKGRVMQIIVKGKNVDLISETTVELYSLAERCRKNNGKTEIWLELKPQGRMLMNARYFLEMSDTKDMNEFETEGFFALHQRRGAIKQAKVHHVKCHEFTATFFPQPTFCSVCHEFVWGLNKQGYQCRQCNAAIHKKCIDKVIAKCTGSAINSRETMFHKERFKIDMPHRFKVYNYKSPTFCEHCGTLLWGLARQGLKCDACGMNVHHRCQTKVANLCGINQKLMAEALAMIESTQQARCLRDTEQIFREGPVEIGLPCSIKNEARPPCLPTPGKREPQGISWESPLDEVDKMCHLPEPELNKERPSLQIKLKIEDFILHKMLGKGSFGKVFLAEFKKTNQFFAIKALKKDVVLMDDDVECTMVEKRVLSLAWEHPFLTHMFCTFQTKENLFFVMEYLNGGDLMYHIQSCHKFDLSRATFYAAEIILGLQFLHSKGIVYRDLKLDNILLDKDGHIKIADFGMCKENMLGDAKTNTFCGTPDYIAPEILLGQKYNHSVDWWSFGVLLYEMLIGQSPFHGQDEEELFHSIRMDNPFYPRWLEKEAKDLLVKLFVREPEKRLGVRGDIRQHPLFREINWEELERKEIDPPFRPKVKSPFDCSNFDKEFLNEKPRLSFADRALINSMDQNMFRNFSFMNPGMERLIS
Chain of Protein kinase C delta type (Q05655 whole entry): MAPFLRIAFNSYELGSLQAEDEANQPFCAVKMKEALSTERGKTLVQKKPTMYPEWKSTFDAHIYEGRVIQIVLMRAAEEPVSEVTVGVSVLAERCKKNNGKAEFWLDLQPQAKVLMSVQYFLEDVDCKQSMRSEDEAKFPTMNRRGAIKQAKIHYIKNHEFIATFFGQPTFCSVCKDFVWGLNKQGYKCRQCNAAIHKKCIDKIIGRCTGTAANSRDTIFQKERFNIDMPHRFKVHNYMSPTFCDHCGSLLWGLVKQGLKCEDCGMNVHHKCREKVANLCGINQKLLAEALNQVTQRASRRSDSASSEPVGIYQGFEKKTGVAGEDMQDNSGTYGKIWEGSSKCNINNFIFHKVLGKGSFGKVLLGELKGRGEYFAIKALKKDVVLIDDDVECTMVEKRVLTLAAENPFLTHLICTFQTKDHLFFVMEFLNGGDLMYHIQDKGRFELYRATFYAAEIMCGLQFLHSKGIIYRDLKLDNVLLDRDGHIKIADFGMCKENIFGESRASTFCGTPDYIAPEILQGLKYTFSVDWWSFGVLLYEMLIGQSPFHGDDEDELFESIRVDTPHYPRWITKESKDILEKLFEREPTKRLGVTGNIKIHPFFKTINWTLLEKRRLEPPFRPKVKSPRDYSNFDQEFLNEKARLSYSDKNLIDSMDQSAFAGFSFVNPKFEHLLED
Chain of Voltage-gated inwardly rectifying potassium channel KCNH2 (Q12809 whole entry): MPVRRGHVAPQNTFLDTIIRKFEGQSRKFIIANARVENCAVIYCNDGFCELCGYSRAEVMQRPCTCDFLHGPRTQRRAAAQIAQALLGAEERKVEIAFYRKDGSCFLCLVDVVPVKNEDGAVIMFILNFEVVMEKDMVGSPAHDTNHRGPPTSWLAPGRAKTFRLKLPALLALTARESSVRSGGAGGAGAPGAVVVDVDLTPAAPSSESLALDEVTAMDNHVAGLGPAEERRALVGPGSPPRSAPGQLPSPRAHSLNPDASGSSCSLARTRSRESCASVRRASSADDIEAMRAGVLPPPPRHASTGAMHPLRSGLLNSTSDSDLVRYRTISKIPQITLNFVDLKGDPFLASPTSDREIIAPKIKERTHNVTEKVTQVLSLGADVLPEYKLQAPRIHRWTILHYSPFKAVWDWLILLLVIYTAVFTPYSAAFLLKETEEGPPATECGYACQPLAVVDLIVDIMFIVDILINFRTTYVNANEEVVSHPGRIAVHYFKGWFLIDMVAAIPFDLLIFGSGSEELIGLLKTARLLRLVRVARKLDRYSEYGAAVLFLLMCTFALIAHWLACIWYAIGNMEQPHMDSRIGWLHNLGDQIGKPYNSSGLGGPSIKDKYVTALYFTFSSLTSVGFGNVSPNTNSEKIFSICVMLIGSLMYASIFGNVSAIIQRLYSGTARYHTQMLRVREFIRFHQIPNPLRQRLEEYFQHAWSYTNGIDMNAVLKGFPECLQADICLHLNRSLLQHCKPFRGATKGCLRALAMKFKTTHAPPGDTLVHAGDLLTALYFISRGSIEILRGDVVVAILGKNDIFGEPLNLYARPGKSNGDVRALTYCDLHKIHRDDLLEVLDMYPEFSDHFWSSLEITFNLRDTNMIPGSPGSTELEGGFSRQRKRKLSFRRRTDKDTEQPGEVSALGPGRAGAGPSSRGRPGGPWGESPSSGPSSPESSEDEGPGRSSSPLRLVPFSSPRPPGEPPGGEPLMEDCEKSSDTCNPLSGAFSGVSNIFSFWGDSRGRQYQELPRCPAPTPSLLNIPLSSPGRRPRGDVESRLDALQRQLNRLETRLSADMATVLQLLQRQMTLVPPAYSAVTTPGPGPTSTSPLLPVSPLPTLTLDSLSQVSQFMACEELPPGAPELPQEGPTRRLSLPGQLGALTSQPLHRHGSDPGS
Chain of Tyrosine-protein kinase JAK2 (O60674 whole entry): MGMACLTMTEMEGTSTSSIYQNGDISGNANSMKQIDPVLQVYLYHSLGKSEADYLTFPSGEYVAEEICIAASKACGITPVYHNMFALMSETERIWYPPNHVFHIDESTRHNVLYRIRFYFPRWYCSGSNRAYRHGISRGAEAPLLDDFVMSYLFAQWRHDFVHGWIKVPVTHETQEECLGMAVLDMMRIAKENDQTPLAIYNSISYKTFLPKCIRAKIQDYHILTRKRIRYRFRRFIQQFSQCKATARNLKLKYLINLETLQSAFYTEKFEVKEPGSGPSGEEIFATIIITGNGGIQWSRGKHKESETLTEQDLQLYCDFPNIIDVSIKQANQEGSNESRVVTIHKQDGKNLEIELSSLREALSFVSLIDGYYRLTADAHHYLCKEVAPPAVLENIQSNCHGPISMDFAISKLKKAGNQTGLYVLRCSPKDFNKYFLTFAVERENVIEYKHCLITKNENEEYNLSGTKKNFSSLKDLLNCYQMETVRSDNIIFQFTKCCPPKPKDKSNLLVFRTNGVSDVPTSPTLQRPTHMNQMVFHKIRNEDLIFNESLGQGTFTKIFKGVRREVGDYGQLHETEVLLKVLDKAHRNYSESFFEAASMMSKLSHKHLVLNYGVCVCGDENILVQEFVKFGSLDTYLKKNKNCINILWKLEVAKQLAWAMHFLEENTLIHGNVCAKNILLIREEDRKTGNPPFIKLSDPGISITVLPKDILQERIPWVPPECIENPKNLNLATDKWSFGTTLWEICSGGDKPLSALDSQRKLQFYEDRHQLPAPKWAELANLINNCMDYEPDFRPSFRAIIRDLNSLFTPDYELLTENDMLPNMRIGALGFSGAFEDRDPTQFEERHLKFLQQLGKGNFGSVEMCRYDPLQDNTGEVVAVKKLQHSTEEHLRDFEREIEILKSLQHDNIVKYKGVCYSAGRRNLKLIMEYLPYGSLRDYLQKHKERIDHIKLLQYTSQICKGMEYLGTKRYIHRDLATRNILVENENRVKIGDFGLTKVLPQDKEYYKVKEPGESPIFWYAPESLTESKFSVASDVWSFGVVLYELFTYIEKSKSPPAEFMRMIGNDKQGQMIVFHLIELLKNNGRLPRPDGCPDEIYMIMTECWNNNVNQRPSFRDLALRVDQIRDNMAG

As a reminder, the Ki is the equilibrium dissociation constant of an inhibitor or competing ligand from its target. As usually defined, the IC50 is the concentration that inhibits the measured activity by half. For the molecule `NCC1(c2cccc(-c3ccnc4[nH]ncc34)c2)CCOCC1`, the Ki in series [1] turned out to be 9 nM. Besides, the Ratio Ki in series [2] stood at 111; in series [3], 93. Further, in [4], the IC50 turned out to be 550 nM.

The term half-life denotes how long it takes for the measured level to halve. Higher therefore signals slow loss. The term efflux ratio denotes a quotient of directional permeabilities that is used to spot active efflux. The term clearance denotes the rate of elimination divided by the concentration. Low values mean inefficient removal, high ones efficient removal. As for `CC(C)(C#N)c1cccc(-c2ccnc3[nH]ncc23)c1`, the CL free stood at 58 µL/min in series [5] and 172 µL/min in series [13]. The molecule further had a half-life in [6] of 4.6 h. Further, the inhibitory constant (Ki) in [7] was found to be 560 nM; in [9], 584 nM; in [1] it was 28 nM; in series [14] it was 270 nM. Besides, the Papp A→B at 2 h in series [8] turned out to be 36 ×10⁻⁶ cm/s. The efflux ratio in series [10] worked out at 0.7. The molecule further showed a clearance in [11] of 12 mL/min/kg. In addition, the Vd in series [12] was found to be 0.94 L/kg.

As for `CCC(C)(C#N)c1cccc(-c2ccnc3[nH]ncc23)c1` (centres undefined), in [1], the Ki was 72 nM. The molecule further had an IC50 in series [4] of 2700 nM.

On to `C#CCC(C)(CN)c1cccc(-c2ccnc3[nH]ncc23)c1` (centres undefined), for which the Ki in series [1] turned out to be 0.2 nM. Also, the Ratio Ki in [2] is 36; in [3], 149. In [4], half-maximal inhibition (IC50) was put at 20 nM.

For `NCC1(c2cccc(-c3ccnc4[nH]ncc34)c2)CCCCC1`, in [1], the Ki worked out at 30 nM. Moreover, the Ratio Ki in [2] came to 8; in [3] it was 18. The molecule further gave an IC50 in [4] of 580 nM.

For `CCC(C)(CN)c1cccc(-c2ccnc3[nH]nc(C)c23)c1` (centres undefined), in [1], the Ki is under 1 nM. The Ratio Ki in [2] is over 16. This molecule returned an IC50 in series [4] of 100 nM.

On to `CCC(C)(CN)c1cccc(-c2ccnc3[nH]nc(Cl)c23)c1` (centres undefined), for which, in series [1], the Ki was determined as 0.3 nM. Further, the Ratio Ki in series [2] was found to be 22. Further, half-maximal inhibition in [4] (IC50) required 20 nM.

For orientation: pKa means the negative logarithm of the acid dissociation constant. A high value points to a weaker acid or stronger base. Regarding `NCC1(c2cccc(-c3ccnc4[nH]nc(C(F)(F)F)c34)c2)CCC1`, the remaining at 0.5 h came to 88% in series [15] and 81% in [19]. The results for the Ki in [9], in series [1] and in series [18] were 60 nM, 2 nM and 57 nM, respectively. The values for the IC50 in [16], in series [17] and in series [4] were 1900 nM, 3000 nM and 90 nM, respectively. The pKa in series [20] stood at 8.8.

Take `NCC1(c2cccc(-c3ccnc4[nH]ncc34)c2)CCC1`: the inhibition constant (Ki) in series [1] is 17 nM. For the same molecule, the Ratio Ki in [2] was 18; in series [3], 41. Further, in series [4], the IC50 worked out at 300 nM.

On to `NCC1(c2cccc(-c3ccnc4[nH]nc(C(F)(F)F)c34)c2)CCOCC1`, for which the remaining at 0.5 h in [15] amounted to 65%; in series [19], 96%. Moreover, the Ki in series [9] turned out to be 184 nM; in series [21], 46 nM; in series [1] it was 9 nM; in [22] it was 30 nM; in series [18] it was 468 nM. Further, the IC50 was 3300 nM in [16], over 10000 nM in [17] and 130 nM in [4].

`CCC(C)(CN)c1cccc(-c2ccnc3[nH]nc(C(F)(F)F)c23)c1` (centres undefined) gave a half-life in series [6] of 1.8 h. Also, in series [1], the Ki was 0.4 nM. The Ratio Ki in [2] amounted to 25. This molecule also came in with a clearance in [11] of 45 mL/min/kg. This molecule returned an IC50 in [4] of 10 nM. In addition, the Vd in [12] turned out to be 2.7 L/kg.

For `CCC(C)(CN)c1cccc(-c2ccnc3[nH]ncc23)c1` (centres undefined), the Ki in series [1] was found to be 3 nM. In addition, the Ratio Ki in series [2] is 13 to 24; in [3], 37. The molecule also yielded an IC50 in [4] of 170 nM.

As for `CC(C)(CN)c1cccc(-c2ccnc3[nH]ncc23)c1`, the Ki in [1] is 12 nM. For the same molecule, the Ratio Ki was 16 in series [2] and 50 in [3]. The molecule further came in with an IC50 in series [4] of 330 nM.

In the case of `CCCc1cc(-c2ccnc3[nH]ncc23)cc(C(C)(CC)CN)c1` (centres undefined), in [1], the Ki is 32 nM. Moreover, the Ratio Ki in series [2] is 39. Moreover, the IC50 in series [4] was 200 nM.

Consider `NCC1(c2cccc(-c3ccnc4[nH]ncc34)c2)CCCC1`, for which, in [1], the Ki is 22 nM. The Ratio Ki is 18 in [2] and 28 in series [3]. Further, the IC50 in [4] came to 350 nM.

In general, logD refers to lipophilicity at a set pH, counting ionised and neutral species. Read a high logD as a more lipophilic compound. As to `CC(C)(C#N)c1cccc(-c2ccnc3[nH]ncc23)n1`, the CL free in series [5] was 24 µL/min; in series [13], 33 µL/min. For the same molecule, the half-life in series [6] was 2.5 h. Besides, the Ki in [7] amounted to 210 nM; in series [9], 240 nM; in [1], 14 nM; in series [18], 465 nM; in series [14], 86 nM. For the same molecule, the Papp A→B at 2 h in [8] is 20.1 ×10⁻⁶ cm/s. Further, the efflux ratio in [10] came out at 0.95. In series [23], the logD turned out to be 2.9. In series [11], this molecule displayed a clearance of 22 mL/min/kg. In addition, in series [12], the Vd was 1.22 L/kg.

In the case of `CCc1cc(-c2ccnc3[nH]ncc23)cc(C(C)(CC)CN)c1` (centres undefined), the Ki in [1] turned out to be 14 nM. In addition, in series [2], the Ratio Ki was found to be 39. The IC50 in series [4] was 250 nM.

With `CCC(C)(CN)c1cc(C)cc(-c2ccnc3[nH]ncc23)c1` (centres undefined), the Ki in series [1] amounted to 5 nM. The Ratio Ki in series [2] came to 24. Moreover, in series [4], the IC50 was determined as 260 nM.
